Reference: patent US8592421B2, “Cyclic bioisosters of purine system derivatives and a pharmaceutical composition based thereon” (priority 2003, dated 2013)

What was measured:
[1] = Chronic toxicity of suppositories: indexes of peripheral blood; assay type: in vivo, rats; conditions: male rats, suppositories rectally; for Basophiles / Juveniles: 1 month/2 months (one value given), control 0
Description: The experiments were conducted on inbred rats.
Two doses of preparations used in the experiments: 50 mg/kg and 500 mg/kg. Before the administration, the suppositories were softened by heating in a glass water bath at a temperature of 38-39° C., the soft mass was collected in tuberculin syringe in a volume of 1 ml, a needle with oliva was attached to the syringe, and the preparatory mass was introduced into the rectum of the animal for a depth of 1.5-2.0 cm. The animals of the control group were administered with sterile medical liquid paraffin in a volume corresponding to the volume of the investigated suppository. A complete course of administration of drugs to the animals was two months. A complex of laboratory diagnostic investigations was carried out one month after the beginning of the administration of the preparation to the animal—in a middle of the course (8 animals), two months after ending the course (8 animals) and three months after ending the recovery period of one month (8 animals). The mass of the body of the rats in the first month of administration of the preparation was determined weekly, and then once in two weeks. On the basis of the dynamics of an index of the mass of the animal body, the volume of preparation being administered was corrected taking into account the test dose.

[2] = Morphine abstinence model: indicator enzymes ALT, AST, γ-GTP in blood plasma; conditions: 20.0 mg/kg intramuscularly three times a day; for γ-GTP in blood plasma, Ci: control 6.261 ± 1.80; for ALT in blood plasma, Ci: control 106.76 ± 111.35; for AST in blood plasma, Ci: control 179.881 ± 11.94
Description: The experiments were carried out on rats in series of 7 animals on each compound according to the invention. Non-morphinized animal with not administered with compounds according to the invention were used as a control group. […] Then the rats were decapitated, the blood from somnolent arteries was collected in test tubes with solution EDTA as an anticoagulant, centrifuged at 1500 g for 15 minutes at 4° C.
To estimate possible hepatoprotective action of the compounds according to the invention under conditions of development of an oxidizing stress in the liver cells, effect of these compounds on the most important biochemical blood indexes, in particular, on the content in blood plasma of indicator enzyme of aspartateaminotransferase (AST), alanineaminotransferase (ALT), γ-glutamiletranspeptidase (γ-GTP) was investigated. The content of enzymes was estimated by their catalyzing activity in blood plasma.
The activity of AST, ALT and γ-GTP was determined by means of diagnostic sets DiaSys, Germany.

[3] = system: embryonic fibroblasts of mouse NIH-3T3; experiment: Effect on endocellular pHi of fibroblasts (microspectrofluorimetry with FDA / BCECF-AM); assay type: cell-based; conditions: for rise of pHi: fibroblasts in an attached spread state; for change of pHi: medium DME without blood serum, 20 minutes; for increase of pHi of cytosol: medium with 10.0% blood serum, 20 minutes after addition
Procedure, shortened: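 Mouse NIH-3T3 embryonic fibroblasts, grown at 37° C. under 5.0% carbon dioxide in DMEM with 2.2 g/l sodium bicarbonate, 80.0 mkg/ml gentamicin and 10.0% embryonal veal serum, were loaded with FDA or BCECF-AM. Intracellular pH was measured by microspectrofluorimetry at 37° C., exciting at λ=490 nm and taking the ratio of emissions at λ=535 nm and λ=570 nm, averaged over 40-60 cells and calibrated with nigericyn in high-potassium buffers.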

[4] = system: synthase of nitrogen oxide (NOC); experiment: Morphine abstinence model: activity of synthase of nitrogen oxide (NOC), radiometric [3H]L-citrulline method; assay type: in vivo, rats Wistar; conditions: 20.0 mg/kg intramuscularly; for Activity of NOC: Mesencephalon: control 2.18 ± 0.09; for Activity of NOC: Hypothalamus: control 5.37 ± 0.20

Nc1cccc2c(=O)[nH][nH]c(=O)c12.[Na] [Compound 15, sodium salt of 5-amino-benzo[d]-3H-pyridazine-1,4-dione]
Basophiles ([1]; 50 mg/kg): 0% | Juveniles ([1]; 50 mg/kg): 0% | Stab neutrophil ([1]; 50 mg/kg, 1 month, control 0.8 ± 0.4): 1.2 ± 0.5% | REE ([1]; 50 mg/kg, 1 month, control 2.2 ± 0.4): 1.8 ± 0.4 mm/h | Reticulocytes ([1]; 50 mg/kg, 1 month, control 2.8%0.3): 2.6 ± 0.2% | Eosinophiles ([1]; 50 mg/kg, 1 month, control 4.0 + 0.3): 3.2 ± 1.0% | Erythrocytes ([1]; 50 mg/kg, 1 month, control 5.6 ± 0.1): 5.7 ± 0.2 mln/mm^3 | Hemoglobin ([1]; 50 mg/kg, 1 month, control 10.5 ± 0.2): 10.6 ± 0.2 mmol/L | Leukocyte ([1]; 50 mg/kg, 1 month, control 17.4 ± 1.3): 14.8 ± 2.0 thousand/mm^3 | Haematocrite ([1]; 50 mg/kg, 1 month, control 45.9 ± 1.7): 47.9 ± 1.4% | Average volume of erythrocytes ([1]; 50 mg/kg, 1 month, control 81.4 ± 1.7): 84.4 ± 1.5 Mkm^3 | Coagulation, time ([1]; 50 mg/kg, 1 month, control 152 ± 10.2): 140 ± 12.2 s | REE ([1]; 50 mg/kg, 2 months, control 1.4 ± 0.2): 1.6 ± 0.2 mm/h | Stab neutrophil ([1]; 50 mg/kg, 2 months, control 2.4 ± 0.4): 0.8 ± 0.5% | Reticulocytes ([1]; 50 mg/kg, 2 months, control 2.9 ± 0.2): 3.0 ± 0.1% | Eosinophiles ([1]; 50 mg/kg, 2 months, control 4.4 + 1.2): 3.6 ± 1.2% | Erythrocytes ([1]; 50 mg/kg, 2 months, control 6.1 ± 0.1): 6.0 ± 0.1 mln/mm^3 | Hemoglobin ([1]; 50 mg/kg, 2 months, control 11.4 ± 0.2): 11.2 ± 0.1 mmol/L | Leukocyte ([1]; 50 mg/kg, 2 months, control 19.1 ± 1.9): 16.3 ± 1.0 thousand/mm^3 | Haematocrite ([1]; 50 mg/kg, 2 months, control 45.9 ± 1.8): 47.5 ± 1.2% | Average volume of erythrocytes ([1]; 50 mg/kg, 2 months, control 74.6 + 1.9): 78.6 ± 1.5 Mkm^3 | Coagulation, time ([1]; 50 mg/kg, 2 months, control 316 ± 8): 321 ± 12 s | Basophiles ([1]; 500 mg/kg): 0% | Juveniles ([1]; 500 mg/kg): 0% | Stab neutrophil ([1]; 500 mg/kg, 1 month, control 0.8 ± 0.4): 0.8 ± 0.5/0.8 ± 0.5% | REE ([1]; 500 mg/kg, 1 month, control 2.2 ± 0.4): 2.2 ± 0.4 mm/h | Reticulocytes ([1]; 500 mg/kg, 1 month, control 2.8%0.3): 3.1 ± 0.2% | Eosinophiles ([1]; 500 mg/kg, 1 month, control 4.0 + 0.3): 3.0 ± 1.0% | Erythrocytes ([1]; 500 mg/kg, 1 month, control 5.6 ± 0.1): 5.7 ± 0.1 mln/mm^3 | Hemoglobin ([1]; 500 mg/kg, 1 month, control 10.5 ± 0.2): 10.6 ± 0.2 mmol/L | Leukocyte ([1]; 500 mg/kg, 1 month, control 17.4 ± 1.3): 17.0 ± 1.4 thousand/mm^3 | Haematocrite ([1]; 500 mg/kg, 1 month, control 45.9 ± 1.7): 47.6 ± 1.3% | Average volume of erythrocytes ([1]; 500 mg/kg, 1 month, control 81.4 ± 1.7): 82.6 ± 1.1 Mkm^3 | Coagulation, time ([1]; 500 mg/kg, 1 month, control 152 ± 10.2): 151 ± 6.4 s | REE ([1]; 500 mg/kg, 2 months, control 1.4 ± 0.2): 1.8 ± 0.4 mm/h | Stab neutrophil ([1]; 500 mg/kg, 2 months, control 2.4 ± 0.4): 0.8 ± 0.5/0.8 ± 0.5% | Reticulocytes ([1]; 500 mg/kg, 2 months, control 2.9 ± 0.2): 3.3 ± 0.3% | Eosinophiles ([1]; 500 mg/kg, 2 months, control 4.4 + 1.2): 3.2 ± 1.4% | Erythrocytes ([1]; 500 mg/kg, 2 months, control 6.1 ± 0.1): 6.7 ± 0.2 mln/mm^3 | Hemoglobin ([1]; 500 mg/kg, 2 months, control 11.4 ± 0.2): 12.5 ± 0.4 mmol/L | Leukocyte ([1]; 500 mg/kg, 2 months, control 19.1 ± 1.9): 21.1 ± 2.4 thousand/mm^3 | Haematocrite ([1]; 500 mg/kg, 2 months, control 45.9 ± 1.8): 53.9 ± 2.1% | Average volume of erythrocytes ([1]; 500 mg/kg, 2 months, control 74.6 + 1.9): 80.21 ± 1.2 Mkm^3 | Coagulation, time ([1]; 500 mg/kg, 2 months, control 316 ± 8): 308 ± 16 s | γ-GTP in blood plasma, Ci ([2]; Control + compound): 7.03 ± 2.82 mE/l | ALT in blood plasma, Ci ([2]; Control + compound): 113.48 ± 2.39 mE/l | AST in blood plasma, Ci ([2]; Control + compound): 173.46 ± 5.63 mE/l | γ-GTP in blood plasma, Ci ([2]; control + Morphine + Compound): 10.69 ± 1.84 mE/l | ALT in blood plasma, Ci ([2]; control + Morphine + Compound): 121.08 ± 5.04 mE/l | AST in blood plasma, Ci ([2]; control + Morphine + Compound): 195.57 ± 18.68 mE/l | rise of pHi ([3]; 2.0 mkg/ml, on the average): 0.10 unit pHi | rise of pHi ([3]; 20.0 mkg/ml, on the average): 0.07 unit pHi | change of pHi ([3]; 0.02 mkg/ml): no effect was found | change of pHi ([3]; 0.2 mkg/ml): no effect was found | change of pHi ([3]; 2.0 mkg/ml, on the average): 0.08 unit pHi | change of pHi ([3]; 20.0 mkg/ml, on the average): 0.08 unit pHi | change of pHi ([3]; 200 mkg/ml): no effect was found | change of pHi ([3]; 1000 mkg/ml): no effect was found | increase of pHi of cytosol ([3]; 0.02 mkg/ml): do not initiate a change of pH | increase of pHi of cytosol ([3]; 0.2 mkg/ml, on the average): 0.1 unit pH | increase of pHi of cytosol ([3]; 2.0 mkg/ml, on the average): 0.12 unit pH | increase of pHi of cytosol ([3]; 20.0 mkg/ml): do not initiate a change of pH | Activity of NOC: Mesencephalon ([4]; Control + Compound): 2.60 ± 0.29 pmol/min/mg of protein | Activity of NOC: Hypothalamus ([4]; Control + Compound): 5.45 ± 0.24 pmol/min/mg of protein | Activity of NOC: Mesencephalon ([4]; Control + Morphine + compound): 1.83 ± 0.23 pmol/min/mg of protein | Activity of NOC: Hypothalamus ([4]; Control + Morphine + compound): 5.26 ± 0.28 pmol/min/mg of protein
